Measured values published in patent publication US6767917B1, “Amorphous torasemide modification” (Pliva d.d., priority 2000, dated 2004).

Tests used:
[1] = Release of the active substance in water (USP 24); type: physicochemical; details: for Released torasemide: water, USP 24, 37° C., 50 rpm, 1000 ml
Protocol: The amorphous torasemide modification as such is suitable for the preparation of pharmaceutical prepartions having short-term or prolonged actions. The amorphous torasemide modification prepared according to Example 1 of the present invention was subjected to the test of the release of the active substance in water at a temperature of 37° C. (USP 24) and the results are represented in Table 1. [table]

[2] = Solid-state stability of the amorphous modification (conversion into crystal modifications); type: physicochemical; details: normal storage conditions, at crushing and compressing

Release profile in comparison with the known crystal torasemide modifications ([1]; in water (USP 24), same medium): slower release | Released torasemide ([1]; time 0 minutes): 0% | Released torasemide ([1]; time 15 minutes): 6.8% | Released torasemide ([1]; time 30 minutes): 10.2% | Released torasemide ([1]; time 45 minutes): 13.0% | Released torasemide ([1]; time 60 minutes): 15.9% | Released torasemide ([1]; time 90 minutes): 20.4% | Released torasemide ([1]; time 120 minutes): 24.9% | Stability (no conversion into crystal modification I, II or III) [2]: stable
SMILES: Cc1cccc(Nc2ccncc2S(=O)(=O)NC(=O)NC(C)C)c1 [amorphous torasemide modification, N-(1-methylethylaminocarbonyl)-4-(3-methyl-phenylamino)-3-pyridinesulfonamide]
